Test results: patent US20210115104A1, “AMYLIN ANALOGUES” (Zealand Pharma A/S, priority 2015, published 2021)
*1 amine or outer side, *2 acyl side, *3 side chain or, on linkers, in order; H or OH if unused. Where a SMILES comes first, the peptide text is derived from it. Bridges are numbered along the chain shown (N, C = ends). [ ]: non-standard residue; d: D form. The star is where a group is joined. C20 diacid = O=C(O)CCCCCCCCCCCCCCCCCCC(=O)*; γGlu = O=C(O)[C@H](CCC(=O)[*:2])N[*:1]; Hyp = O=C(O)[C@@H]1C[C@@H](O)CN1; NMeI = CC[C@H](C)[C@H](NC)C(=O)O; Aad = N[C@@H](CCCC(=O)O)C(=O)O; Sar = CNCC(=O)O

Experiments:
[1] = target: T1, human calcitonin receptor (hCTR2) (Homo sapiens, UniProt P30988); test: hCTR2 cAMP assay (AlphaScreen) in COS7 cells; assay type: cell-based; details: cAMP induction, COS7 cells expressing hCTR2; Table 1; read-out: hCTR2 EC50
T1 construct: expressed in transfected cells
T1 sequence (P30988 25-474): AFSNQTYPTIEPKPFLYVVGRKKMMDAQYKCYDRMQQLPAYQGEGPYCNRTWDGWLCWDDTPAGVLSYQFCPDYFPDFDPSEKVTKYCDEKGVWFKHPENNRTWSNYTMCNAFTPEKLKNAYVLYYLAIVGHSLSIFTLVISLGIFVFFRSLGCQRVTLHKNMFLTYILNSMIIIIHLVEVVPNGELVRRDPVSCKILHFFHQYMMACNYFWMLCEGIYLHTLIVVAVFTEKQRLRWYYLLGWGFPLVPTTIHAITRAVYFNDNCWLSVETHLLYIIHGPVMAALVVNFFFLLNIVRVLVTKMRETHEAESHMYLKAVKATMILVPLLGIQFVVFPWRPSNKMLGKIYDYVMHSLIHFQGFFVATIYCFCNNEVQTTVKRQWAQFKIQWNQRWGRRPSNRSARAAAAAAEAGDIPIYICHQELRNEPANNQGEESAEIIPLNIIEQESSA
In short: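 cAMP induction, read by AlphaScreen after lysis, gives EC50 values via 4PL curve fitting. Peptides were applied at rising concentrations for 15 min at 37 °C, with IBMX and 0.1% casein in HEPES-buffered Tyrode pH 7.4, to COS7 cells (no endogenous RAMPs) stably expressing human CTR2.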

[2] = target: T2, human amylin receptor 3 (hAMYR3), hCTR2 co-expressed with hRAMP3 (Homo sapiens, UniProt O60896+P30988); test: hAMYR3 cAMP assay (AlphaScreen) in COS7 cells; assay type: cell-based; details: cAMP induction, COS7 cells expressing hAMYR3; Table 1; read-out: hAMYR3 EC50
T2 construct: expressed in transfected cells
T2 sequence (P30988 25-474): T1 sequence (P30988 25-474)
T2 sequence (O60896 24-148 partner): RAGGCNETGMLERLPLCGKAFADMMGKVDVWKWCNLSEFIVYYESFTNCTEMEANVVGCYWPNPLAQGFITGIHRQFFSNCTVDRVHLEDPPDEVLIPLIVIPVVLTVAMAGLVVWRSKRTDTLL
In short: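 EC50 values derive from 4PL curve fits of cAMP (AlphaScreen) in lysates of RAMP-naive COS7 cells stably carrying hCTR2 plus hRAMP3. Peptide dilution series were applied for 15 min at 37 °C in pH 7.4 Tyrode buffer containing 100 µM IBMX and 0.1% casein.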

[3] = Assessment of chemical stability (RP-HPLC normalized purity); assay type: physicochemical; details: 7 days, 40° C., Table 1; for Normalized purity after 7 days, 40° C., pH 4: pH 4, 0.2 mg/ml; for Normalized purity after 7 days, 40° C., pH 6: pH 6, 0.2 mg/ml; for Normalized purity after 7 days, 40° C., pH 7.5: pH 7.5, 0.2 mg/ml; for Normalized purity after 7 days, 40° C., pH 9: pH 9, 0.2 mg/ml
In short: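 Purity after 7 days at 40° C is expressed relative to T=0 (set to 100) for each pH. Samples at 0.2 mg/ml, pH 4, 6, 7.5 or 9, analyzed by RP-HPLC with UV 220 nm on C8 (ammonium formate) or C18 (TFA) gradients.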

SMILES | EC50 [1] | EC50 [2] | Normalized purity after 7 days, 40° C., pH 4 [3] | Normalized purity after 7 days, 40° C., pH 6 [3] | Normalized purity after 7 days, 40° C., pH 7.5 [3] | Normalized purity after 7 days, 40° C., pH 9 [3]
CC[C@H](C)[C@@H](C(=O)N[C@@H](CC(C)C)C(=O)N[C@@H](CO)C(=O)N[C@@H](CO)C(=O)N[C@H](C(=O)N[C@@H](CCC(=O)O)C(=O)N[C@H](C(=O)NCC(=O)N[C@@H](CO)C(=O)NCC(=O)N[C@H](C(=O)N1C[C@H](O)C[C@H]1C(N)=O)[C@@H](C)O)C(C)C)[C@@H](C)O)N(C)C(=O)[C@H](C)NC(=O)CN(C)C(=O)[C@H](Cc1ccccc1)NC(=O)[C@H](CO)NC(=O)[C@H](CO)NC(=O)[C@H](CCCNC(=N)N)NC(=O)[C@H](CCC(N)=O)NC(=O)[C@H](CC(C)C)NC(=O)[C@H](Cc1ccccc1)NC(=O)[C@H](CC(=O)O)NC(=O)[C@H](C)NC(=O)[C@H](CC(C)C)NC(=O)[C@H](CCCNC(=N)N)NC(=O)[C@H](CCC(N)=O)NC(=O)[C@@H](NC(=O)[C@H](C)NC(=O)[C@@H]1CSSC[C@H](NC(=O)[C@H](CCCNC(=N)N)NC(=O)CC[C@H](NC(=O)CCCCCCCCCCCCCCCCCCC(=O)O)C(=O)O)C(=O)N[C@@H](CC(N)=O)C(=O)N[C@@H]([C@@H](C)O)C(=O)N[C@@H](C)C(=O)N[C@@H]([C@@H](C)O)C(=O)N1)[C@@H](C)O [Compound 81, [19CD]-isoGlu-R-C( )-NTAT-C( )-ATQRLADFLQRSSF-Gly(Me)-A-Ile(Me)-LSSTEVGSGT-Hyp-NH2] ({C20 diacid-γGlu}-RCNTATCATQRLADFLQRSSF[Sar]A[NMeI]LSSTEVGSGT[Hyp]-NH2; disulfide 2-7) | 0.1 nM | 0.23 nM | A (A = >90%) | A (A = >90%) | A (A = >90%) | A (A = >90%)
CC[C@H](C)[C@@H](C(=O)N[C@@H](CC(C)C)C(=O)N[C@@H](CO)C(=O)N[C@@H](CO)C(=O)N[C@H](C(=O)N[C@@H](CCC(=O)O)C(=O)N[C@H](C(=O)NCC(=O)N[C@@H](CO)C(=O)N[C@@H](CC(N)=O)C(=O)N[C@H](C(=O)N1C[C@H](O)C[C@H]1C(N)=O)[C@@H](C)O)C(C)C)[C@@H](C)O)N(C)C(=O)[C@H](C)NC(=O)CN(C)C(=O)[C@H](Cc1ccccc1)NC(=O)[C@H](CO)NC(=O)[C@H](CO)NC(=O)[C@H](CCCNC(=N)N)NC(=O)[C@H](CCC(N)=O)NC(=O)[C@H](CC(C)C)NC(=O)[C@H](Cc1ccccc1)NC(=O)[C@H](CCCC(=O)O)NC(=O)[C@H](C)NC(=O)[C@H](CC(C)C)NC(=O)[C@H](CCCNC(=N)N)NC(=O)[C@H](CCC(N)=O)NC(=O)[C@@H](NC(=O)[C@H](C)NC(=O)[C@@H]1CSSC[C@H](NC(=O)[C@H](CCCNC(=N)N)NC(=O)CC[C@H](NC(=O)CCCCCCCCCCCCCCCCCCC(=O)O)C(=O)O)C(=O)N[C@@H](CC(N)=O)C(=O)N[C@@H]([C@@H](C)O)C(=O)N[C@@H](C)C(=O)N[C@@H]([C@@H](C)O)C(=O)N1)[C@@H](C)O [Compound 86, [19CD]-isoGlu-R-C( )-NTAT-C( )-ATQRLA-Aad-FLQRSSF-Gly(Me)-A-Ile(Me)-LSSTEVGSNT-Hyp-NH2] ({C20 diacid-γGlu}-RCNTATCATQRLA[Aad]FLQRSSF[Sar]A[NMeI]LSSTEVGSNT[Hyp]-NH2; disulfide 2-7) | 0.1 nM | 0.15 nM | A (A = >90%) | A (A = >90%) | A (A = >90%) | A (A = >90%)
CC[C@H](C)[C@@H](C(=O)N[C@@H](CC(C)C)C(=O)N[C@@H](CO)C(=O)N[C@@H](CO)C(=O)N[C@H](C(=O)N[C@@H](CCC(=O)O)C(=O)N[C@H](C(=O)NCC(=O)N[C@@H](CO)C(=O)N[C@@H](CC(N)=O)C(=O)N[C@H](C(=O)N1CCC[C@H]1C(N)=O)[C@@H](C)O)C(C)C)[C@@H](C)O)N(C)C(=O)[C@H](C)NC(=O)CN(C)C(=O)[C@H](Cc1ccccc1)NC(=O)[C@H](CO)NC(=O)[C@H](CO)NC(=O)[C@H](CCCNC(=N)N)NC(=O)[C@H](CCC(N)=O)NC(=O)[C@H](CC(C)C)NC(=O)[C@H](Cc1ccccc1)NC(=O)[C@H](Cc1c[nH]cn1)NC(=O)[C@H](C)NC(=O)[C@H](CC(C)C)NC(=O)[C@H](CCCNC(=N)N)NC(=O)[C@H](CC(=O)O)NC(=O)[C@@H](NC(=O)[C@H](C)NC(=O)[C@@H]1CSSC[C@H](NC(=O)[C@H](CCCNC(=N)N)NC(=O)CC[C@H](NC(=O)CCCCCCCCCCCCCCCCCCC(=O)O)C(=O)O)C(=O)N[C@@H](CCC(N)=O)C(=O)N[C@@H]([C@@H](C)O)C(=O)N[C@@H](C)C(=O)N[C@@H]([C@@H](C)O)C(=O)N1)[C@@H](C)O [Compound 92, [19CD]-isoGlu-R-C( )-QTAT-C( )-ATDRLAHFLQRSSF-Gly(Me)-A-Ile(Me)-LSSTEVGSNTP-NH2] ({C20 diacid-γGlu}-RCQTATCATDRLAHFLQRSSF[Sar]A[NMeI]LSSTEVGSNTP-NH2; disulfide 2-7) | 0.1 nM | 0.22 nM | A (A = >90%) | A (A = >90%) | A (A = >90%) | A (A = >90%)
CC[C@H](C)[C@@H](C(=O)N[C@@H](CC(C)C)C(=O)N[C@@H](CO)C(=O)N[C@@H](CO)C(=O)N[C@H](C(=O)N[C@@H](CCC(=O)O)C(=O)N[C@H](C(=O)NCC(=O)N[C@@H](CO)C(=O)N[C@@H](CC(N)=O)C(=O)N[C@H](C(=O)N1C[C@H](O)C[C@H]1C(N)=O)[C@@H](C)O)C(C)C)[C@@H](C)O)N(C)C(=O)[C@H](C)NC(=O)CN(C)C(=O)[C@H](Cc1ccccc1)NC(=O)[C@H](CCCNC(=N)N)NC(=O)[C@H](CCC(N)=O)NC(=O)[C@H](CC(C)C)NC(=O)[C@H](Cc1ccccc1)NC(=O)[C@H](CCCC(=O)O)NC(=O)[C@H](C)NC(=O)[C@H](CC(C)C)NC(=O)[C@H](CCCNC(=N)N)NC(=O)[C@H](CC(=O)O)NC(=O)[C@@H](NC(=O)[C@H](C)NC(=O)[C@@H]1CSSC[C@H](NC(=O)[C@H](CCCNC(=N)N)NC(=O)CC[C@H](NC(=O)CCCCCCCCCCCCCCCCCCC(=O)O)C(=O)O)C(=O)N[C@@H](CCC(N)=O)C(=O)N[C@@H]([C@@H](C)O)C(=O)N[C@@H](C)C(=O)N[C@@H]([C@@H](C)O)C(=O)N1)[C@@H](C)O [Compound 95, [19CD]-isoGlu-R-C( )-QTAT-C( )-ATDRLA-Aad-FLQRF-Gly(Me)-A-Ile(Me)-LSSTEVGSNT-Hyp-NH2] ({C20 diacid-γGlu}-RCQTATCATDRLA[Aad]FLQRF[Sar]A[NMeI]LSSTEVGSNT[Hyp]-NH2; disulfide 2-7) | 0.18 nM | 0.2 nM | A (A = >90%) | A (A = >90%) | A (A = >90%) | A (A = >90%)
